US9303042B2, “Triazolothienopyrimidine compound inhibitors of urea transporters and methods of using inhibitors” (The Regents of the University of California, priority 2012, dated 2016)

Experiments:
UT-B = molecular target: T1, UT-B (Mus musculus, UniProt Q8VHL0); assay: Transepithelial urea transport in MDCK cells stably expressing UT-B; type: cell-based; details: UTBinh-14 10 μM
T1 sequence (Q8VHL0 1-384): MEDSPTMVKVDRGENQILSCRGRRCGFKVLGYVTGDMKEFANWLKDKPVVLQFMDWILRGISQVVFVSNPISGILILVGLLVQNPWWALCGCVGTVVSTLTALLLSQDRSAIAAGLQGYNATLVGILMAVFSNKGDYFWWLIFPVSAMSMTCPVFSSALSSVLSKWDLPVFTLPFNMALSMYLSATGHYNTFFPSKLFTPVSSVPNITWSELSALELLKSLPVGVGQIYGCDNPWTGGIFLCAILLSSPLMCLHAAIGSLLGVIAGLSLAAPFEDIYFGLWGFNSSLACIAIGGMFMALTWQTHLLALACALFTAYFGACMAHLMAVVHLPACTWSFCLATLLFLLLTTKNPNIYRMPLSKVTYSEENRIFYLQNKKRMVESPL
Description: (§1) UT-B selectivity and cytotoxicity were studied. Because of sequence similarities between UT-B and UT-A isoforms, UT-A inhibition was measured. Transepithelial urea transport was measured in MDCK cells stably expressing UT-A1, UT-A3, and UT-B. UT-A1 and UT-A3 are cAMP-regulated urea transporters expressed in kidney tubule epithelia (see, e.g., Frohlich et al., Am. J. Physiol. Cell Physiol. 291:C600-606 (2006); Tickle et al., Am. J. Physiol. Regul. Integr. Comp Physiol 0.297: R323-329 (2009); Stewart et al., Am. J. Physiol. Renal Physiol. 292:F1157-63 (2006)). MDCK cells were cultured on collagen-coated porous filters for measurement of urea accumulation in the apical solution following addition of urea to the basolateral solution.
(§2) cDNAs encoding mouse UT-A3 and UT-B were cloned into pcDNA3.1 and used to generate stably transfected MDCK cell lines. MDCK cells stably expressing rat UT-A1 (MDCK-UT-A1) (see, e.g., Frohlich et al., supra) were obtained as described (see, e.g., Levin et al., FASEB J., supra). Cells were cultured in DMEM containing 10% FBS and 0.5 mg/mL G418. […] Urea flux in the basolateral-to-apical direction across unstimulated and forskolin-stimulated cell layers was measured in response to a 15-mM urea gradient. […]

UT-A1 = molecular target: T2, UT-A1 (Rattus norvegicus, UniProt Q62668); assay: Transepithelial urea transport in MDCK cells stably expressing UT-A1; type: cell-based; details: UTBinh-14 10 μM, forskolin
T2 construct: expressed in transfected cells; host or cells: MDCK cells (MDCK-UT-A1), obtained as described in cited literature
T2 sequence (Q62668 1-929): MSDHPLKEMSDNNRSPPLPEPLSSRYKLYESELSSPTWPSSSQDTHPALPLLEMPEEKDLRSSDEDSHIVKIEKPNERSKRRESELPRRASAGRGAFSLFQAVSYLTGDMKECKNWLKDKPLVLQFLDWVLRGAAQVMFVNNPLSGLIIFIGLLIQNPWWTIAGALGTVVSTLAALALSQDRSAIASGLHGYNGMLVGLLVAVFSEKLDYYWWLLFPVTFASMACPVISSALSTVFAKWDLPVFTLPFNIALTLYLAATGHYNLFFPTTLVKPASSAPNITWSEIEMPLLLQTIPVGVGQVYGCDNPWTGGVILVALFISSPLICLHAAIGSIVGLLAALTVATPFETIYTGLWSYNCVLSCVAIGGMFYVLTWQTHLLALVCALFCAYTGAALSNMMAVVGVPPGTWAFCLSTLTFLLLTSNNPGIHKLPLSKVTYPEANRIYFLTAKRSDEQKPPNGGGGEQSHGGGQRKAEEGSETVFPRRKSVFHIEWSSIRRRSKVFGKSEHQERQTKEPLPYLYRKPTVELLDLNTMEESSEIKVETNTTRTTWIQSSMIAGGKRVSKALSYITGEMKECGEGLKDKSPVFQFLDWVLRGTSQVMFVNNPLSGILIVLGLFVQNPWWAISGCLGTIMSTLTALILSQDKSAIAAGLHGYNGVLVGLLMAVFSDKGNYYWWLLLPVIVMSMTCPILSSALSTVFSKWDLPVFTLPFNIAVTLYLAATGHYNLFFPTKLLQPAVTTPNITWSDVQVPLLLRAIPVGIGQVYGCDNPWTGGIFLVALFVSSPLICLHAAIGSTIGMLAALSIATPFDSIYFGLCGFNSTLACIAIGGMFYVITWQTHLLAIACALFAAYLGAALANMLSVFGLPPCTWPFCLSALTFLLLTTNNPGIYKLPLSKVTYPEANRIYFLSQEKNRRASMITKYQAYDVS
Description: as §1, §2

CCc1ccc(S(=O)(=O)c2nnn3c2nc(NCc2cccs2)c2sccc23)cc1 [UTBinh-14, [3-(4-Ethyl-benzenesulfonyl)-thieno[2,3-e][1,2,3]triazolo[1,5-a]pyrimidin-5-yl]-thiophen-2-ylmethylamine]
inhibition of UT-B facilitated urea transport (UT-B): strongly inhibited
inhibition of UT-A1 facilitated urea transport (UT-A1): little inhibition
